Paper PMC2725291, “Genetic and Molecular Basis of Individual Differences in Human Umami Taste Perception” (PLoS ONE, 2009)

Target: T1, TAS1R1-12H-372A/TAS1R3 -757R (Homo sapiens, UniProt Q7RTX0+Q7RTX1, C757R/Q12H)
T1 construct: expressed in transfected cells; host or cells: HEK293
T1 sequence (Q7RTX1 21-841): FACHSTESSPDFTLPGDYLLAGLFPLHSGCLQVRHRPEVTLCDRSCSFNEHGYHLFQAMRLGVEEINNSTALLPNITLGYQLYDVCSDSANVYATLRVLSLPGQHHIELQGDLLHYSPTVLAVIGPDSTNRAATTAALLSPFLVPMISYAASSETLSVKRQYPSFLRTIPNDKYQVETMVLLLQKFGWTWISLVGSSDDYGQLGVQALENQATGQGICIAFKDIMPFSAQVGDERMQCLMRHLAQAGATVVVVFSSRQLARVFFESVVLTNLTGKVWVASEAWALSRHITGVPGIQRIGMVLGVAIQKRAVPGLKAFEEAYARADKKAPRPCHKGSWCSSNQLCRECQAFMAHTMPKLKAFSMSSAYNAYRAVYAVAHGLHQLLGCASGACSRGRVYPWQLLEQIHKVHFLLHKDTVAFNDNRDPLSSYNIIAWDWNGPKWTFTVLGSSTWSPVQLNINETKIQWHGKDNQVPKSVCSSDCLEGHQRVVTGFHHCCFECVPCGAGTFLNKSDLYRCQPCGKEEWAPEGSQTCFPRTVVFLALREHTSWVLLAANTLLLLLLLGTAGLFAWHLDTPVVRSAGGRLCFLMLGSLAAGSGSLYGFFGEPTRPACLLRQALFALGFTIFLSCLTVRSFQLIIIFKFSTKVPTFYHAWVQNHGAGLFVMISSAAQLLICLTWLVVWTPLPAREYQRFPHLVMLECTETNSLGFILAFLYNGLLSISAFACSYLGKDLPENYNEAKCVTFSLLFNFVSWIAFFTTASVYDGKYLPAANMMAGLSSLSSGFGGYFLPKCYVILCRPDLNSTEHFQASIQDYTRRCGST
T1 sequence (Q7RTX0 21-852 C757R): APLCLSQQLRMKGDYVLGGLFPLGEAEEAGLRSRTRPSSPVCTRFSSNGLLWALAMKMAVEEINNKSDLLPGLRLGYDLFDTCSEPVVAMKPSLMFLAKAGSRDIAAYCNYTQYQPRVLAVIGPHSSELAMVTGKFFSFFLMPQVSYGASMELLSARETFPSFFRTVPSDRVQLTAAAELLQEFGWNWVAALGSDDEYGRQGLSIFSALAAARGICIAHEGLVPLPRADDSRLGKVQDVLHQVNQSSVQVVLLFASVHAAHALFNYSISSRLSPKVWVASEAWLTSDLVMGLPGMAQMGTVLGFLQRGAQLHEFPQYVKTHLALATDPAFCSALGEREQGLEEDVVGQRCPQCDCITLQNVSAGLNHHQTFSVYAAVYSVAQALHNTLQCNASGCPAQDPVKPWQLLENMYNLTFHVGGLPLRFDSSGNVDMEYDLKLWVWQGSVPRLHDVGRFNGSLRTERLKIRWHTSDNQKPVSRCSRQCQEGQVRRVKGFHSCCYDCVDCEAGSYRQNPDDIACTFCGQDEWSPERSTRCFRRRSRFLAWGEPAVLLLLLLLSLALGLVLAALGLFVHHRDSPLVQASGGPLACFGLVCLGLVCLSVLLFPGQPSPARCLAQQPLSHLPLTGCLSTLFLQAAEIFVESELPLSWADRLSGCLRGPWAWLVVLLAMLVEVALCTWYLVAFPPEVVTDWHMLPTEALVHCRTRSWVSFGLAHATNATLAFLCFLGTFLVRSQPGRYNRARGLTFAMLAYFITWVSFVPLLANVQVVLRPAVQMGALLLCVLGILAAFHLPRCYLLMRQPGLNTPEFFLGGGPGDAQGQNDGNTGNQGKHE
Assay: Ca2+ imaging in HEK293 cells, Q12H amino acid substitution of TAS1R1
Assay type: cell-based
Conditions: vs. TAS1R1-12Q-372A/TAS1R3-757R; Figure S3
Source text: Intronless human TAS1Rs and Gαl6 expression constructs were generated in the pEF-DEST51 Gateway vector (Invitrogen) by genomic DNA-based methods. To subclone each gene into the vector, a Kozak cassette was introduced at the 5′ end before the start codon. Gαl6 chimeras were generated by PCR with mutagenic primers. The carboxyl-terminal tail of Gαl6, five-residue (EINLL) was replaced by its counterpart from Gαi3 (ECGLY; Gα16-i3), Gαgust (DCGLF; Gα16-gust), and Gα16-gust44 was generated as described. The integrity of all DNA constructs was confirmed by DNA sequencing. Point mutations in TAS1Rs were made using the same overlapping PCR strategy with mutagenic primers. […]
HEK293 cells were cultured at 37°C under a humidified atmosphere containing 5% CO2 in Dulbecco's modified Eagle's medium supplemented with 10% fetal bovine serum. […] The transfection efficiencies were estimated by visualizing DsRed fluorescence (data not shown) or by immunocytochemistry of TAS1R3, and were typically 50∼55% (Figure S4). […]
Another imaging system, FlexStation II (Molecular Devices) was used for TAS1R mutant analysis. […] Fluorescence changes (excitation at 485 nm, emission at 525 nm, and cutoff at 515 nm) were monitored at 2 sec intervals; 50 µl of HBSS supplemented with 2×tastants were added at 30 sec, and scanning was continued for an additional 120 sec. […]

## N[C@@H](CCC(=O)O)C(=O)[O-].[Na+] [MSG, monosodium glutamate]
  effect of the Q12H amino acid mutation of TAS1R1 on responses: did not affect
